# Measurements published in patent publication US20110039763A1, “TARGETED ANTIMICROBIAL MOIETIES” (C3 JIAN, INC., priority 2009, published 2011).
# “Also recorded” adds a separate entry of the source.
# How the values were obtained:
# microorganisms [1] = assay: Morphology, biofilm and growth disrupting peptides (Table 5); assay type: cell-based; parameters: key: A: Peptide aggregates; B: Less hyphal formation; Clumps; Diffuse clumps and small polyps; F: Diffuse growth; H: Thin; I: Growth inhibition; Microcolony formation; Rippled; Small polyps; Thick; W: Halo formation on top, microlonies on bottom
# Text: In certain embodiments peptides that induce alterations in phenotype or other biological activities can also be used as antimicrobial effector moieties.
# microorganisms [2] = assay: Targeting peptide binding to target microorganisms (Tables 3, 10, 12); conditions: microorganism(s) the targeting peptide binds, preferably 1x PBS
# microorganisms [3] = assay: Peptide activities: targeting/binding, antimicrobial, growth or phenotype altering (Tables 7, 8); assay type: cell-based; conditions: peptides having multiple activities
# [4] = binding in aqueous buffers varied with peptide solubility
# [5] = binding in aqueous buffers that varied with peptide solubility
substance,measurement,setting,value
PF-276: peptide having multiple activities (chain 1 LDLALSTNSLNLEGFSF; chain 2 LDLALSTNSLNLEGFSF; Peptide with targeting and/or antimicrobial activity),"Organism, effect: M. luteus",microorganisms [1],M. luteus (M)
same,Target(s),microorganisms [2]; [4],S. epidermidis
same,Activities,microorganisms [3],G B
PF-191: peptide having multiple activities (QFCNFAWLFLASNNAQVSALA; Peptide with targeting and/or antimicrobial activity),"Organism, effect: C. jeikeium",microorganisms [1]; C. jeikeium,C. jeikeium (R)
same,"Organism, effect: MRSA",microorganisms [1]; MRSA,MRSA (H)
same,"Organism, effect: S. epidermidis",microorganisms [1]; S. epidermidis,S. epidermidis (A)
same,Target(s),microorganisms [2]; [4],E. coli; also recorded: P. aeruginosa; also recorded: C. jejuni
same,Activities,microorganisms [3],G B
PF-173: peptide having multiple activities (AGRTAIVQGGG; Peptide with targeting and/or antimicrobial activity),"Organism, effect: C. jeikeium",microorganisms [1]; C. jeikeium,C. jeikeium (D)
same,"Organism, effect: S. epidermidis",microorganisms [1]; S. epidermidis,S. epidermidis (A)
same,Target(s),microorganisms [2]; [4],S. epidermidis; also recorded: M. luteus; also recorded: P. mirabilis; also recorded: E. coli; also recorded: P. aeruginosa; also recorded: C. albicans; also recorded: C. jeikeium; also recorded: C. jejuni
same,Activities,microorganisms [3],G B
PF-464: peptide having multiple activities (VDMVNRFLGN; Peptide with targeting and/or antimicrobial activity),"Organism, effect",microorganisms [1]; S. pneumoniae,S. pneumoniae (S)
same,Target(s),microorganisms [2]; [4],S. epidermidis and C. albicans and MRSA and S. pneumoniae and E. faecalis and C. jeikeium and C. jejuni
same,Activities,microorganisms [3],G B
PF-467: peptide having multiple activities (YYKDYFKEI; Peptide with targeting and/or antimicrobial activity),"Organism, effect",microorganisms [1]; S. pneumoniae,S. pneumoniae (H)
same,Target(s),microorganisms [2]; [4],MRSA and E. faecalis and C. jeikeium and C. jejuni
same,Activities,microorganisms [3],G B
PF-546: peptide having multiple activities (PIIAPTIKTQIQ; Peptide with targeting and/or antimicrobial activity),"Organism, effect",microorganisms [1]; C. jeikeium,C. jeikeium (D)
same,"Organism, effect",microorganisms [1]; E. coli,E. coli (R)
same,"Organism, effect",microorganisms [1]; E. faecalis,E. faecalis (D)
same,"Organism, effect",microorganisms [1]; MRSA,MRSA (D)
same,"Organism, effect",microorganisms [1]; S. epidermidis,S. epidermidis (D)
same,"Organism, effect",microorganisms [1]; S. pneumoniae,S. pneumoniae (D)
same,Target(s),microorganisms [2]; [4],S. epidermidis; also recorded: E. coli; also recorded: C. albicans; also recorded: S. pneumoniae; also recorded: E. faecalis; also recorded: C. jeikeium
same,Activities,microorganisms [3],G B
PF-128: peptide having multiple activities (chain 1 GIKVVAARFEEIQFSENFDSIILA; chain 2 GIKVVAARFEEIQFSENFDSIILA; Peptide with targeting and/or antimicrobial activity),"Organism, effect: P. aeruginosa",microorganisms [1]; P. aeruginosa,P. aeruginosa (C)
same,"Organism, effect: S. epidermidis",microorganisms [1]; S. epidermidis,S. epidermidis (D)
same,Target(s),microorganisms [2]; [4],M. luteus; also recorded: P. aeruginosa; also recorded: E. faecalis
same,Activities,microorganisms [3],G B
PF-553: peptide having multiple activities (LTIVGNALQQKNQKLLLNQKKITSLG; Peptide with targeting and/or antimicrobial activity),"Organism, effect",microorganisms [1]; B. subtilis,B. subtilis (D)
same,"Organism, effect",microorganisms [1]; C. jeikeium,C. jeikeium (R)
same,"Organism, effect",microorganisms [1]; MRSA,MRSA (M)
same,"Organism, effect",microorganisms [1]; S. pneumoniae,S. pneumoniae (R)
same,Target(s),microorganisms [2]; [4],S. epidermidis and E. coli and P. aeruginosa and C. albicans and MRSA and S. pneumoniae and C. jeikeium
same,Activities,microorganisms [3],G B
PF-C062: peptide having multiple activities (PLARATEVVATLFIICSLLLYLTR; Peptide with targeting and/or antimicrobial activity),"Organism, effect",microorganisms [1]; F. nucleatum,F. nucleatum (T)
same,"Organism, effect",microorganisms [1]; S. mutans,S. mutans (I)
same,Target(s),microorganisms [2]; [4],A. naeslundii; also recorded: F. nucleatum; also recorded: P. gingivalis; also recorded: S. mutans; also recorded: T. denticola
same,Activities,microorganisms [3],G B
HCVIGNVVDIANLLKRRAVYRDIADVIKMR [PF-071],"Organism, effect: B. subtilis",microorganisms [1]; B. subtilis,B. subtilis (D)
same,"Organism, effect: C. albicans",microorganisms [1]; C. albicans,C. albicans (B)
same,"Organism, effect: C. jejuni",microorganisms [1]; C. jejuni,C. jejuni (A)
same,"Organism, effect: M. luteus",microorganisms [1],M. luteus (R)
same,"Organism, effect: MRSA",microorganisms [1]; MRSA,MRSA (C)
same,"Organism, effect: S. epidermidis",microorganisms [1]; S. epidermidis,S. epidermidis (R)
same,"Organism, effect: S. pneumoniae",microorganisms [1]; S. pneumoniae,S. pneumoniae (A)
same,Target(s),microorganisms [2]; [5],S. epidermidis and E. coli and P. aeruginosa and C. albicans and MRSA and S. pneumoniae and E. faecalis
same,Activities,microorganisms [3],G B
PF-563: peptide having multiple activities (RPELDNELDVVQNSASLDKLQASYN; Peptide with targeting and/or antimicrobial activity),"Organism, effect",microorganisms [1]; B. subtilis,B. subtilis (D)
same,"Organism, effect",microorganisms [1]; C. jejuni,C. jejuni (H)
same,"Organism, effect",microorganisms [1]; S. pneumoniae,S. pneumoniae (H)
same,Target(s),microorganisms [2]; [4],S. epidermidis; also recorded: M. luteus; also recorded: C. jeikeium
same,Activities,microorganisms [3],G B
PF-518: peptide having multiple activities (SFYSKYSRYIDNLAGAIFLFF; Peptide with targeting and/or antimicrobial activity),"Organism, effect",microorganisms [1]; E. coli,E. coli (R)
same,"Organism, effect",microorganisms [1]; E. faecalis,E. faecalis (C)
same,"Organism, effect",microorganisms [1]; MRSA,MRSA (C)
same,"Organism, effect",microorganisms [1]; S. epidermidis,S. epidermidis (C)
same,"Organism, effect",microorganisms [1]; S. pneumoniae,S. pneumoniae (M)
same,Target(s),microorganisms [2]; [4],S. epidermidis and E. coli and P. aeruginosa and C. albicans and MRSA and S. pneumoniae and E. faecalis
same,Activities,microorganisms [3],G B
PF-010: peptide having multiple activities (MDIDVNKLLQAFVYFKSFEKLRHNNS; Peptide with targeting and/or antimicrobial activity),"Organism, effect: C. jeikeium",microorganisms [1]; C. jeikeium,C. jeikeium (A)
same,"Organism, effect: M. luteus",microorganisms [1],M. luteus (A)
same,"Organism, effect: MRSA",microorganisms [1]; MRSA,MRSA (R)
same,"Organism, effect: S. epidermidis",microorganisms [1]; S. epidermidis,S. epidermidis (S)
same,Target(s),microorganisms [2]; [5],S. epidermidis; also recorded: M. luteus; also recorded: E. coli; also recorded: C. albicans
same,Activities,microorganisms [3],G B
PF-153: peptide having multiple activities (chain 1 GILARADCSQIA; chain 2 GILARADCSQIA; Peptide with targeting and/or antimicrobial activity),"Organism, effect: C. jeikeium",microorganisms [1]; C. jeikeium,C. jeikeium (C)
same,"Organism, effect: S. epidermidis",microorganisms [1]; S. epidermidis,S. epidermidis (M)
same,Target(s),microorganisms [2]; [4],M. luteus and P. mirabilis and E. coli and MRSA
same,Activities,microorganisms [3],G B
PF-446: peptide having multiple activities (SGNEKV; Peptide with targeting and/or antimicrobial activity),"Organism, effect",microorganisms [1]; S. pneumoniae,S. pneumoniae (H)
same,Target(s),microorganisms [2]; [4],M. luteus; also recorded: C. jeikeium
same,Activities,microorganisms [3],G B
PF-074: peptide having multiple activities (chain 1 RDIHPIYFMTKD; chain 2 RDIHPIYFMTKD; Peptide with targeting and/or antimicrobial activity),"Organism, effect: MRSA",microorganisms [1]; MRSA,MRSA (M)
same,"Organism, effect: S. epidermidis",microorganisms [1]; S. epidermidis,S. epidermidis (D)
same,Target(s),microorganisms [2]; [4],S. epidermidis and M. luteus and MRSA
same,Activities,microorganisms [3],G B
PF-C291: peptide having multiple activities (chain 1 HPFLTGTGCPLFLIFRLFFVKAYFSFTVF; chain 2 HPFLTGTGCPLFLIFRLFFVKAYFSFTVF; Peptide with targeting and/or antimicrobial activity),"Organism, effect",microorganisms [1]; F. nucleatum,F. nucleatum (T)
same,"Organism, effect",microorganisms [1]; S. mutans,S. mutans (F)
same,Target(s),microorganisms [2]; [4],A. naeslundii; also recorded: F. nucleatum; also recorded: P. gingivalis; also recorded: S. mutans
same,Activities,microorganisms [3],G B
PF-484: peptide having multiple activities (HKKDIRKQVFKN; Peptide with targeting and/or antimicrobial activity),"Organism, effect",microorganisms [1]; E. faecalis,E. faecalis (A)
same,Target(s),microorganisms [2]; [4],S. epidermidis; also recorded: M. luteus; also recorded: P. mirabilis; also recorded: E. coli; also recorded: E. faecalis; also recorded: C. jeikeium; also recorded: C. jejuni
same,Activities,microorganisms [3],G B
PF-394: peptide having multiple activities (chain 1 VLKEECYQKN; chain 2 VLKEECYQKN; Peptide with targeting and/or antimicrobial activity),"Organism, effect: E. faecalis",microorganisms [1]; E. faecalis,E. faecalis (A)
same,"Organism, effect: MRSA",microorganisms [1]; MRSA,MRSA (C)
same,Target(s),microorganisms [2]; [4],S. epidermidis and MRSA and C. jejuni
same,Activities,microorganisms [3],G B
PF-549: peptide having multiple activities (TGIGPIARPIEHGLDS; Peptide with targeting and/or antimicrobial activity),"Organism, effect",microorganisms [1]; B. subtilis,B. subtilis (D)
same,"Organism, effect",microorganisms [1]; MRSA,MRSA (C)
same,Target(s),microorganisms [2]; [4],E. coli; also recorded: C. albicans; also recorded: S. pneumoniae; also recorded: C. jeikeium
same,Activities,microorganisms [3],G B
PF-629: peptide having multiple activities (chain 1 GLAAIATVFALY; chain 2 GLAAIATVFALY; Peptide with targeting and/or antimicrobial activity),"Organism, effect",microorganisms [1]; C. jeikeium,C. jeikeium (R)
same,"Organism, effect",microorganisms [1]; E. faecalis,E. faecalis (R)
same,"Organism, effect",microorganisms [1]; MRSA,MRSA (D)
same,"Organism, effect",microorganisms [1]; S. epidermidis,S. epidermidis (C)
same,"Organism, effect",microorganisms [1]; S. pneumoniae,S. pneumoniae (M)
same,Target(s),microorganisms [2]; [4],S. epidermidis and P. aeruginosa and C. albicans and MRSA and S. pneumoniae and E. faecalis and C. jeikeium
same,Activities,microorganisms [3],G B
SIGSMIGMYSFRHKTKHIKFTFGIPFILFLQFLLVYFYILK [PF-319],"Organism, effect: B. subtilis",microorganisms [1]; B. subtilis,B. subtilis (C)
same,"Organism, effect: S. epidermidis",microorganisms [1]; S. epidermidis,S. epidermidis (C)
same,Target(s),microorganisms [2]; [4],S. epidermidis; also recorded: B. subtilis; also recorded: C. difficile
same,Activities,microorganisms [3],G B
